We go through one substance from US3937821A, “Plasma substitute including artificial starch and method for the preparation thereof” (Kyorin Seiyaku Kabushiki Kaisha, priority 1971, dated 1976).

Data set [1] concerns antibodies in human sera. To be noted: cited from earlier work.
Data set [2] has as its system Rats. The note with it: rat, in vivo; cited from earlier work.
Data set [3] concerns antibodies in human sera.
For data set [4], the system named is humans. To be noted: in vivo, iv.
The subject of data set [5] is Rabbits. The note with it: rabbit, in vivo.
Description: (§1) Sera from all bleedings were analysed by passive cutaneous anaphylaxis reaction. Arthus reaction in rabbits and active anaphylaxis reaction in guinea pigs were performed too.
Data set [6] deals with guinea pigs. The note with it: guinea pig, in vivo.
Description: as §1
The test system of data set [7] is Mice. To be noted: mouse, in vivo.
Description: as §1
The subject of data set [8] is Mice. To be noted: mouse, in vivo. The source holds these as a separate data set.
Data set [9] has as its system patients. To be noted: human, in vivo; cited from earlier work.
For data set [10], the system named is Mice. The note with it: mouse, in vivo; cited from earlier work.
Data set [11] concerns Rats. The note with it: rat, in vivo.

As for Dextran, the “human sera contain reacting antibodies; anaphylactic reaction after infusion” value in [1] is listed as “human sera contain Dextran reacting antibodies of varying types”. Also, the anaphylactoid reaction result is “edema and erythema of paws, ears and snout” in data set [2]; “edema and erythema of paws, ears and snout” in [10]. The “sera positive in passive cutaneous anaphylaxis reaction” value in data set [3] is on record as “Three sera gave positive a reaction”. In addition, in data set [4], the antibody production entry is reported as “do not lead to antibody production”. Further, the “antibodies detectable / immunogenicity” value in [5] and in data set [6] was “not immunogenic” each time. Besides, the circulating antibodies result in data set [7] is listed as “circulating antibodies were detected”. Moreover, the anaphylactoid purpura entry in [8] is “anaphylactoid purpura appeared in the paws, ears and tail”; in data set [11], “anaphylactoid purpura appeared in the paws, ears and tail”. Besides, the anaphylactoid inflammation entry in [8] (iv) was “acute, serous anaphylactoid inflammation in the ears, snout and tail”; in [11] (iv), “acute, serous anaphylactoid inflammation in the ears, snout and tail”. For the same substance, the “renal lesion or anaphylactic shock” value in [9] is given as 6 - 8%.
